Test systems include A549 NSCLC; HCT-15 colon; HL-60(TB) leukemia; HOP-92 NSCLC; HS 578T breast; MDA-MB-231 breast; OVCAR-8 ovarian; SN12C renal; UACC-257 melanoma; UO-31 renal.
Common to all, as to test: inhibition of tumour cell growth, NCI panel, 48 h

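A five-concentration, 48-hour dose response in 96-well plates underlies each endpoint, interpolated linearly between surrounding concentrations. Here, GI50 denotes the concentration required for 50% inhibition of growth. Definition used: TGI = concentration required for complete inhibition of growth.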

In the case of `O=C1N=C(Nc2nc(-c3csc(NC4=NC(=O)/C(=C\c5ccc(Cl)cc5)S4)n3)cs2)S/C1=C/c1ccc(Cl)cc1`, the GI50 with A549 NSCLC is 10.5 µM; with HCT-15 colon, 40.4 µM; in the assay on HL-60(TB) leukemia, 12.6 µM; in the assay on HOP-92 NSCLC it was 8.61 µM; in the assay with HS 578T breast it was greater than 50 µM; in the assay with MDA-MB-231 breast it was 10.2 µM. The GI50 in the assay on OVCAR-8 ovarian was 8.99 µM; with SN12C renal, 7.85 µM; with UACC-257 melanoma, 5.14 µM; with UO-31 renal, 17.6 µM. The TGI is greater than 50 µM with A549 NSCLC; greater than 50 µM in the assay with HCT-15 colon; 33.8 µM in the assay with HL-60(TB) leukemia; 28.5 µM in the assay with HOP-92 NSCLC; greater than 50 µM in the assay with HS 578T breast; 35 µM in the assay on MDA-MB-231 breast. The TGI in the assay on OVCAR-8 ovarian is 30.2 µM; in the assay with SN12C renal, 33.7 µM; with UACC-257 melanoma, 18.1 µM; with UO-31 renal it was greater than 50 µM.

`CC[C@@]1(O)C(=O)NCc2c1cc1n(c2=O)Cc2cc3c(NC(C)=O)cccc3nc2-1`: the GI50 with A549 NSCLC, in the assay on HCT-15 colon, with HL-60(TB) leukemia, with HOP-92 NSCLC, in the assay with HS 578T breast and in the assay on MDA-MB-231 breast was greater than 100 µM in each case. The GI50 with OVCAR-8 ovarian, in the assay with SN12C renal, in the assay on UACC-257 melanoma and in the assay with UO-31 renal was greater than 100 µM each time. In addition, the TGI in the assay on A549 NSCLC, in the assay on HCT-15 colon, with HL-60(TB) leukemia, in the assay on HOP-92 NSCLC, in the assay with HS 578T breast and with MDA-MB-231 breast was greater than 100 µM in each case. In addition, the TGI in the assay on OVCAR-8 ovarian, in the assay on SN12C renal, with UACC-257 melanoma and in the assay on UO-31 renal was greater than 100 µM each time.

With `O=C1NC(=O)C(c2c[nH]c3ccccc23)=C1c1ccccc1`, the GI50 in the assay with A549 NSCLC, in the assay on HCT-15 colon, in the assay with HL-60(TB) leukemia, with HOP-92 NSCLC, in the assay on HS 578T breast and with MDA-MB-231 breast was greater than 25 µM each time. The GI50 with OVCAR-8 ovarian was greater than 25 µM; in the assay on SN12C renal it was greater than 25 µM; with UACC-257 melanoma, greater than 25 µM; in the assay with UO-31 renal, greater than 24 µM. Moreover, the TGI in the assay on A549 NSCLC, in the assay with HCT-15 colon, in the assay with HL-60(TB) leukemia, with HOP-92 NSCLC, in the assay on HS 578T breast and in the assay on MDA-MB-231 breast was greater than 25 µM each time. Also, the TGI in the assay on OVCAR-8 ovarian, in the assay on SN12C renal, in the assay on UACC-257 melanoma and with UO-31 renal was greater than 25 µM throughout.

As to `CCOC(=O)c1cc(-c2ccccc2)[nH]c1N/N=C/c1c(Cl)cccc1Cl`, the GI50 in the assay with A549 NSCLC was 1.92 µM; with HCT-15 colon, 0.671 µM; in the assay with HL-60(TB) leukemia, 0.484 µM; in the assay with HOP-92 NSCLC it was 2.02 µM; in the assay on HS 578T breast, 0.538 µM; with MDA-MB-231 breast, 3.7 µM. Further, the GI50 in the assay with OVCAR-8 ovarian is 4.77 µM; in the assay with SN12C renal it was 4.3 µM; in the assay with UACC-257 melanoma it was 49.2 µM; with UO-31 renal, 1.34 µM. Besides, the TGI was greater than 100 µM with A549 NSCLC; greater than 100 µM in the assay on HCT-15 colon; 5.13 µM in the assay on HL-60(TB) leukemia; 62.4 µM with HOP-92 NSCLC; 37.2 µM in the assay on HS 578T breast; 25.4 µM in the assay with MDA-MB-231 breast. In addition, the TGI in the assay on OVCAR-8 ovarian, with SN12C renal, in the assay on UACC-257 melanoma and with UO-31 renal was greater than 100 µM throughout.

Consider `COc1cc(NC(=O)c2ccccc2Nc2ccnc(C(F)(F)F)c2)cc(OC)c1OC`, for which the GI50 with A549 NSCLC was 58.1 µM; in the assay on HCT-15 colon it was 56.1 µM; with HL-60(TB) leukemia, 44.3 µM; with HOP-92 NSCLC, 23.2 µM; in the assay with HS 578T breast, 58.8 µM; in the assay with MDA-MB-231 breast it was greater than 100 µM. Also, the GI50 was 69.6 µM in the assay on OVCAR-8 ovarian, 52.9 µM in the assay on SN12C renal, 88.2 µM with UACC-257 melanoma and 19.8 µM in the assay with UO-31 renal. Moreover, the TGI is greater than 100 µM with A549 NSCLC; greater than 100 µM in the assay on HCT-15 colon; greater than 100 µM in the assay on HL-60(TB) leukemia; 74.1 µM with HOP-92 NSCLC; greater than 100 µM with HS 578T breast; greater than 100 µM with MDA-MB-231 breast. Further, the TGI with OVCAR-8 ovarian was greater than 100 µM; with SN12C renal, greater than 100 µM; in the assay on UACC-257 melanoma it was greater than 100 µM; in the assay on UO-31 renal, 92.1 µM.
